Target: T1, XylR (Mycolicibacterium smegmatis, UniProt A0R508)
T1 construct: gene MSMEG_6022
T1 sequence (A0R508 1-393): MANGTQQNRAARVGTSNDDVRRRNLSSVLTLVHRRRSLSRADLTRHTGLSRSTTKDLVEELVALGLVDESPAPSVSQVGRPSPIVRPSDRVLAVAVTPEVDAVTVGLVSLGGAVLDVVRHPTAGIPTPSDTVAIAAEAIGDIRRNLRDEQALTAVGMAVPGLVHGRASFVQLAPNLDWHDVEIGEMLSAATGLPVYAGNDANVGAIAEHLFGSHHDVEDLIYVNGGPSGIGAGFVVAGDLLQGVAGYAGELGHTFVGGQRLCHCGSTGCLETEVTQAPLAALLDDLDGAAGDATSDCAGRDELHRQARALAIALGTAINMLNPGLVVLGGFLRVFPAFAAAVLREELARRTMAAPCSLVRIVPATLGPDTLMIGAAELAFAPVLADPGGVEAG
Experiment: isothermal titration calorimetry
Format: binding
Details: 20 mM Tris-base, 100 mM NaCl, 5 mM MgCl2, pH 7.5; 35 μM XylR; independent-site model, n = 1.09 ± 0.04

## OC1OC[C@@H](O)[C@H](O)[C@H]1O (stereo partly drawn) [D-xylose]
  Kd: 4.72 ± 0.6 µM

Source: publication PMC10138657, “D-Xylose Blocks the Broad Negative Regulation of XylR on Lipid Metabolism and Affects Multiple Physiological Characteristics in Mycobacteria” (International Journal of Molecular Sciences, 2023)
